Measurements published in patent US8883846B2, “Synthesis of bicyclic compounds and method for their use as therapeutic agents” (priority 2010, dated 2014).
Where “and” joins values, the source holds several entries; their conditions need not be identical. Identical values can stand only once. Like-named read-outs stand apart in the source and are kept apart here.

Legend:
[1] = biological target: recombinant H1N1 neuraminidase (Influenza A virus (strain A/Puerto Rico/8/1934 H1N1), UniProt P03468); assay: biochemical; assay type: biochemical
recombinant H1N1 neuraminidase, sequence (P03468 36-454 limits assumed): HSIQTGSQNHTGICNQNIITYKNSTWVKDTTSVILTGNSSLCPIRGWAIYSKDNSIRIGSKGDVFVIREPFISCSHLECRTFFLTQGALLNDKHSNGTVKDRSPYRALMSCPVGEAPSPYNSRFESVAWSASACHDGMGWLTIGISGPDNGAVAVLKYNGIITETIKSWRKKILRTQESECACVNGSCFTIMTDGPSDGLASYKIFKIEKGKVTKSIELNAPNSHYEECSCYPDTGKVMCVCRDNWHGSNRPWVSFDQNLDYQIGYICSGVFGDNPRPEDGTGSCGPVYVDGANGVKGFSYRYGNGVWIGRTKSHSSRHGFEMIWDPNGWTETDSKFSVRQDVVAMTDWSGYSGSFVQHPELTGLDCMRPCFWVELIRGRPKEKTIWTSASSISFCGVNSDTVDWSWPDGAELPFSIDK

[2] = biological target: neuraminidase of NP40-inactivated influenza A/Brisbane/59/2007(H1N1) (Influenza A virus, UniProt D5F1R0); assay: In vitro neuraminidase assay vs. NP40-inactivated influenza virus; assay type: biochemical
neuraminidase of NP40-inactivated influenza A/Brisbane/59/2007(H1N1), sequence (D5F1R0 1-470): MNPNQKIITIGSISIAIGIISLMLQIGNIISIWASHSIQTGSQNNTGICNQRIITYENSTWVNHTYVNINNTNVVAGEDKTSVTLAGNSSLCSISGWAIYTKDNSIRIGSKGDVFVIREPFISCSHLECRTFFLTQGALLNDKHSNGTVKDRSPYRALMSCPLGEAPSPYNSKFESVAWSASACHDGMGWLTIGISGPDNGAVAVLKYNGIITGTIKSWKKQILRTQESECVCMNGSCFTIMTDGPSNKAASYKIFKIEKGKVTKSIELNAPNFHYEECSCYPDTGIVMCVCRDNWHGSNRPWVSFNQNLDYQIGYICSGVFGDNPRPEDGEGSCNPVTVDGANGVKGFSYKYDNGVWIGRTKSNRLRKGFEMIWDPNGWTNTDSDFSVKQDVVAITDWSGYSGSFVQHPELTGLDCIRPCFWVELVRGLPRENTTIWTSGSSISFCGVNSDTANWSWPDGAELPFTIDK

neuraminidase = conditions: background statement; cited from earlier work
[3] = NP40-inactivated influenza A/Brisbane/59/2007(H1N1), read-out: IC50
[4] = NP40-inactivated virus, Lineweaver-Burk analysis

C[C@@H]1C[C@](O)(C(=O)O)[C@H]2CCS(=O)(=O)[C@@H]12 [Compound 20]
IC50 [1]: 4000 µM
Inhibition Mode [1]: mixed
inhibition of commercially available recombinant H1N1 neuraminidase [1]: dose-dependent inhibition

C[C@@H]1C[C@](O)(C(=O)O)[C@H]2C[C@H](Cc3ccccc3)S(=O)(=O)[C@@H]12 [Compound 21]
IC50 [1]: > 10000 µM

N=C(N)N[C@@H]1C[C@](O)(C(=O)O)[C@H]2CCS(=O)(=O)[C@@H]12 [Compound 27]
IC50 [2, 3]: 3700 µM and 3800 µM
Inhibition Mode [2, 4]: competitive
Ki ([2]; NP40-inactivated virus, estimated from Km versus inhibitor concentration, read-out: Ki): 1000 µM

CC(=O)N[C@H]1CS(=O)(=O)[C@H]2[C@@H]1[C@H](N)C[C@@H]2C(=O)O [Compound 31]
IC50 [2, 3]: 92 µM
Inhibition Mode [2, 4]: competitive

CC(=O)N[C@H]1CS(=O)(=O)[C@H]2[C@@H]1[C@H](NC(=N)N)C[C@@H]2C(=O)O [Compound 32]
Inhibition Mode [2]: competitive
Ki [2]: 5 µM
IC50 ([2]; IC50): 30 µM

CCOC(=O)C1=C[C@@H](OC(CC)CC)[C@H](NC(C)=O)[C@@H](N)C1 [oseltamivir]
effective concentration as neuraminidase inhibitor (neuraminidase): around 1 nM

CCC(CC)[C@H](NC(C)=O)[C@@H]1[C@H](O)[C@@H](C(=O)O)C[C@H]1N=C(N)N [peramivir]
potency relative to oseltamivir (neuraminidase): roughly ten-fold
